# Reference: patent US9834542B2, “LXR modulators” (BRISTOL-MYERS SQUIBB COMPANY, priority 2013, dated 2017)
# Molecular target: T1, LXRβ (Homo sapiens, UniProt P55055)
# T1 construct: Co-transfection expression plasmids, comprising full-length LXRα (pCMX-h LXRα[…] or LXRβ (pCMX-hLXRβ)); expressed in transfected cells; host or cells: CV-1 African Green Monkey Kidney Cells
# T1 sequence (P55055 1-460): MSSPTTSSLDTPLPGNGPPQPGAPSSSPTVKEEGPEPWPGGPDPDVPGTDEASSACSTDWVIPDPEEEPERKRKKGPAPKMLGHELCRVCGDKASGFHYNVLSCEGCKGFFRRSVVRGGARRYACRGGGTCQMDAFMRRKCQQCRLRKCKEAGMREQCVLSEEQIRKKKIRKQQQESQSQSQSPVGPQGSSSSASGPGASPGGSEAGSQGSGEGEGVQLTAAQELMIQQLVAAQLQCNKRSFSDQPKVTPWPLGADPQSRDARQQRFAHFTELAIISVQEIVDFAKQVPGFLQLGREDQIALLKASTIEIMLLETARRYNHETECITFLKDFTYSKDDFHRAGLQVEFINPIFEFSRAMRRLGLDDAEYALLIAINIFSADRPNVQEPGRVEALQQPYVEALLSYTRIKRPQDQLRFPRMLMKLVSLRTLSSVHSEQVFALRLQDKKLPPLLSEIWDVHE
# T1 sequence (P19793 1-462 partner): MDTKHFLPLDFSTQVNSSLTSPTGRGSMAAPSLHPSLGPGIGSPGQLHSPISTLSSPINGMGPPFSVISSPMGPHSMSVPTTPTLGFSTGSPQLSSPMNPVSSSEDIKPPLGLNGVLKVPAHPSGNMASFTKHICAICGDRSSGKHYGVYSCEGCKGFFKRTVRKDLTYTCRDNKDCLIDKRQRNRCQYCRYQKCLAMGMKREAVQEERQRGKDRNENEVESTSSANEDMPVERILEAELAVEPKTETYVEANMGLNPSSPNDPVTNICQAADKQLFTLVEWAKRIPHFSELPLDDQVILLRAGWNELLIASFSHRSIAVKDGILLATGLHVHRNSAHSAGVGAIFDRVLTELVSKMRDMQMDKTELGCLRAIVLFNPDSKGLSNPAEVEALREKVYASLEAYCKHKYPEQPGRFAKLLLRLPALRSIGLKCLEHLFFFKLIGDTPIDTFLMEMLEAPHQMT
# Assay: Co-transfection assay (LXRE luciferase reporter), LXRβ
# Type: cell-based
# Conditions: for EC50: CV-1 cells transfected with pCMX-hLXRβ and LXREx1-Tk-Luciferase, 20 hours incubation; for Emax: LXRβ co-transfection, relative to high control 1-(2,4-difluorobenzyl)-2-oxo-6-(4-phenoxyphenyl)-4-(trifluoromethyl)-1,2-dihydropyridine-3-carbonitrile, read-out: % Efficacy
# How it was run: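 CV-1 cells transiently co-transfected with full-length human LXRβ (or LXRα), LXREx1-Tk-luciferase reporter and β-galactosidase control; compound added (10 μM final in single-point, 11-point ½-log curves, ≤0.5% DMSO) for 20 h at 37 °C. Luciferase read; EC50 from four-parameter fit, efficacy relative to reference agonist high control.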
Structure (SMILES),EC50,Emax
"Cc1nc(C(F)(F)F)cn1-c1ccc(-c2cc(F)c(CO)c(S(C)(=O)=O)c2)c(Cl)c1-n1nncc1-c1ccc(Cl)cc1Cl [Example 103, {2′-chloro-3′-[5-(2,4-dichlorophenyl)-1H-1,2,3-triazol-1-yl]-3-fluoro-5-(methylsulfonyl)-4′-[2-methyl-4-(trifluoromethyl)-1H-imidazol-1-yl]biphenyl-4-yl}methanol]",1240 nM,52%
"Cc1nc(C(F)(F)F)cn1-c1ccc(-c2cc(F)c(CO)c(S(C)(=O)=O)c2)cc1-n1nncc1C1(c2ccc(Cl)cc2)CC1 [Example 106, (3′-{5-[1-(4-chlorophenyl)cyclopropyl]-1H-1,2,3-triazol-1-yl}-3-fluoro-5-(methylsulfonyl)-4′-[2-methyl-4-(trifluoromethyl)-1H-imidazol-1-yl]biphenyl-4-yl)methanol]",281 nM,48%
"Cc1ccc(C(C)c2cnnn2-c2cc(-c3cc(Cl)c(CO)c(S(C)(=O)=O)c3)ccc2-n2cc(C(F)(F)F)nc2C)cc1 (stereo not drawn) [Example 110, (3-chloro-3′-{5-[1-(4-methylphenyl)ethyl]-1H-1,2,3-triazol-1-yl}-5-(methylsulfonyl)-4′-[2-methyl-4-(trifluoromethyl)-1H-imidazol-1-yl]biphenyl-4-yl)methanol]",103 nM,77%
Cc1nc(C(F)(F)F)cn1-c1ccc(-c2cc(F)c(CO)c(S(C)(=O)=O)c2)cc1-n1nncc1Cc1ccc(Cl)cc1 [Example 113],524 nM,72%
"Cc1nc(C(F)(F)F)cn1-c1ccc(-c2cccc(C(C)(C)C(N)=O)c2)cc1-n1nncc1Cc1cccc(Cl)c1 [Example 114, 2-(3′-{5-[(3-chlorophenyl)methyl]-1H-1,2,3-triazol-1-yl}-4′-[2-methyl-4-(trifluoromethyl)-1H-imidazol-1-yl]biphenyl-3-yl)-2-methylpropanamide]",940 nM,98%
"Cc1nc(C(F)(F)F)cn1-c1ccc(-c2cccc(S(C)(=O)=O)c2)cc1-n1nncc1Cc1ccc(Cl)c(Cl)c1 [Example 115, 5-[(3,4-dichlorophenyl)methyl]-1-{3′-(methylsulfonyl)-4-[2-methyl-4-(trifluoromethyl)-1H-imidazol-1-yl]biphenyl-3-yl}-1H-1,2,3-triazole]",920 nM,79%
"Cc1nc(C(F)(F)F)cn1-c1ccc(-c2cccc(S(C)(=O)=O)c2)cc1-n1nncc1Cc1cccc(OC(F)(F)F)c1 [Example 116, 1-{3′-(methylsulfonyl)-4-[2-methyl-4-(trifluoromethyl)-1H-imidazol-1-yl]biphenyl-3-yl}-5-({3-[(trifluoromethyl)oxy]phen-yl}methyl)-1H-1,2,3-triazole]",982 nM,59%
"Cc1nc(C(F)(F)F)cn1-c1ccc(-c2cc(Cl)c(CO)c(S(C)(=O)=O)c2)cc1-n1nncc1Cc1cccc(Cl)c1 [Example 117, (3-chloro-3′-{5-[(3-chlorophenyl)methyl]-1H-1,2,3-triazol-1-yl}-5-(methylsulfonyl)-4′-[2-methyl-4-(trifluoromethyl)-1H-imidazol-1-yl]biphenyl-4-yl)methanol]",1020 nM,76%
"Cc1nc(C(F)(F)F)cn1-c1ccc(-c2cccc(S(C)(=O)=O)c2)cc1-n1nncc1Cc1ccc(OC(F)(F)F)cc1 [Example 118, 1-{3′-(methylsulfonyl)-4-[2-methyl-4-(trifluoromethyl)-1H-imidazol-1-yl]biphenyl-3-yl}-5-({4-[(trifluoromethyl)oxy]phen-yl}methyl)-1H-1,2,3-triazole]",1040 nM,61%
"Cc1nc(C(F)(F)F)cn1-c1ccc(-c2cccc(C(C)(C)C(N)=O)c2)cc1-n1nncc1Cc1ccc(Cl)cc1 [Example 119, 2-(3′-{5-[(4-chlorophenyl)methyl]-1H-1,2,3-triazol-1-yl}-4′-[2-methyl-4-(trifluoromethyl)-1H-imidazol-1-yl]biphenyl-3-yl)-2-methylpropanamide]",820 nM,85%
"Cc1nc(C(F)(F)F)cn1-c1ccc(-c2cc(F)c(CO)c(S(C)(=O)=O)c2)cc1-n1nncc1Cc1cccc(Cl)c1 [Example 120, (3′-{5-[(3-chlorophenyl)methyl]-1H-1,2,3-triazol-1-yl}-3-fluoro-5-(methylsulfonyl)-4′-[2-methyl-4-(trifluoromethyl)-1H-imidazol-1-yl]biphenyl-4-yl)methanol]",795 nM,91%
"Cc1nc(C(F)(F)F)cn1-c1ccc(-c2cc(Cl)c(CO)c(S(C)(=O)=O)c2)cc1-n1nncc1Cc1ccc(Cl)cc1 [Example 122, (3-chloro-3′-{5-[(4-chlorophenyl)methyl]-1H-1,2,3-triazol-1-yl}-5-(methylsulfonyl)-4′-[2-methyl-4-(trifluoromethyl)-1H-imidazol-1-yl]biphenyl-4-yl)methanol]",643 nM,64%
"Cc1nc(C(F)(F)F)cn1-c1ccc(-c2cccc(S(C)(=O)=O)c2)cc1-n1nncc1Cc1ccccc1OC(F)(F)F [Example 123, 1-{3′-(methylsulfonyl)-4-[2-methyl-4-(trifluoromethyl)-1H-imidazol-1-yl]biphenyl-3-yl}-5-({2-[(trifluoromethyl)oxy]phen-yl}methyl)-1H-1,2,3-triazole]",1100 nM,36%

# Now from value to compound:
EC50,Emax,Structure (SMILES)
227 nM,70%,"Cc1ccc(C(C)c2cnnn2-c2cc(-c3cccc(S(=O)(=O)N(C)C)c3)ccc2-n2cc(C(F)(F)F)nc2C)cc1 (stereo not drawn) [Example 105, N,N-dimethyl-3′-{5-[1-(4-methylphenyl)ethyl]-1H-1,2,3-triazol-1-yl}-4′-[2-methyl-4-(trifluoromethyl)-1H-imidazol-1-yl]biphenyl-3-sulfonamide]"
201 nM,83%,"CCS(=O)(=O)c1cccc(-c2ccc(-n3cc(C(F)(F)F)nc3C)c(-n3nncc3C(C)c3ccc(C)cc3)c2)c1 (stereo not drawn) [Example 107, 1-{3′-(ethylsulfonyl)-4-[2-methyl-4-(trifluoromethyl)-1H-imidazol-1-yl]biphenyl-3-yl}-5-[1-(4-methylphenyl)ethyl]-1H-1,2,3-triazole]"
149 nM,62%,"Cc1nc(C(F)(F)F)cn1-c1ccc(-c2cccc(S(C)(=O)=O)c2)cc1-n1nncc1C(C)c1ccc(Cl)cc1 (stereo not drawn) [Example 108, 5-[1-(4-chlorophenyl)ethyl]-1-{3′-(methylsulfonyl)-4-[2-methyl-4-(trifluoromethyl)-1H-imidazol-1-yl]biphenyl-3-yl}-1H-1,2,3-triazole]"
111 nM,53%,"Cc1nc(C(F)(F)F)cn1-c1ccc(-c2cc(F)c(CO)c(S(C)(=O)=O)c2)cc1-n1nncc1C(C)c1ccc(Cl)cc1 (stereo not drawn) [Example 109, (3′-{5-[1-(4-chlorophenyl)ethyl]-1H-1,2,3-triazol-1-yl}-3-fluoro-5-(methylsulfonyl)-4′-[2-methyl-4-(trifluoromethyl)-1H-imidazol-1-yl]biphenyl-4-yl)methanol]"
930 nM,92%,"Cc1ccc(C(C)c2cnnn2-c2cc(-c3cccc(S(C)(=O)=O)c3)ccc2-n2cc(C(F)(F)F)nc2C)cc1 (stereo not drawn) [Example 111, 5-[1-(4-methylphenyl)ethyl]-1-{3′-(methylsulfonyl)-4-[2-methyl-4-(trifluoromethyl)-1H-imidazol-1-yl]biphenyl-3-yl}-1H-1,2,3-triazole]"
973 nM,53%,"Cc1nc(C(F)(F)F)cn1-c1ccc(-c2cccc(S(C)(=O)=O)c2)cc1-n1nncc1C1(c2ccc(Cl)cc2)CC1 [Example 112, 5-[1-(4-chlorophenyl)cyclopropyl]-1-{3′-(methylsulfonyl)-4-[2-methyl-4-(trifluoromethyl)-1H-imidazol-1-yl]biphenyl-3-yl}-1H-1,2,3-triazole]"
651 nM,100%,"Cc1nc(C(F)(F)F)cn1-c1ccc(-c2cccc(S(C)(=O)=O)c2)cc1-n1nncc1Cc1cccc(Cl)c1 [Example 121, 5-[(3-chlorophenyl)methyl]-1-{3′-(methylsulfonyl)-4-[2-methyl-4-(trifluoromethyl)-1H-imidazol-1-yl]biphenyl-3-yl}-1H-1,2,3-triazole]"
1160 nM,64%,"Cc1nc(C(F)(F)F)cn1-c1ccc(-c2cccc(S(C)(=O)=O)c2)cc1-n1nncc1Cc1ccc(F)cc1 [Example 124, 5-[(4-fluorophenyl)methyl]-1-{3′-(methylsulfonyl)-4-[2-methyl-4-(trifluoromethyl)-1H-imidazol-1-yl]biphenyl-3-yl}-1H-1,2,3-triazole]"
